# Measured values taken from the supplement of paper PMC10307832.
# How the values were obtained:
# Assay in all cases: relative viability (nuclei count vs DMSO), 5 days (fraction); higher = more cells survive
# AZD8055 + Pemetrexed = compound: COc1ccc(-c2ccc3c(N4CCOC[C@@H]4C)nc(N4CCOC[C@@H]4C)nc3n2)cc1CO [AZD8055] + Nc1nc2[nH]cc(CCc3ccc(C(=O)N[C@@H](CCC(=O)O)C(=O)O)cc3)c2c(=O)[nH]1 [Pemetrexed] (partner 0.2 µM)
# How it was run: (§1)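 Each reported value is a median over duplicate plates. It expresses relative viability: treated-well nuclei count divided by vehicle-well nuclei count. Lung cancer cell lines in 1536-well plates were dosed by pin tool a day after seeding, alone with one drug or with a fixed anchor-drug dose plus five library-drug doses (not always all listed) in √10 steps, and nuclei were counted after 5 days.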
# AZD8055 + Olaparib = compound: COc1ccc(-c2ccc3c(N4CCOC[C@@H]4C)nc(N4CCOC[C@@H]4C)nc3n2)cc1CO [AZD8055] + O=C(c1cc(Cc2n[nH]c(=O)c3ccccc23)ccc1F)N1CCN(C(=O)C2CC2)CC1 [Olaparib] (partner 8 µM)
# How it was run: as §1
# AZD8055 + Bortezomib = compound: COc1ccc(-c2ccc3c(N4CCOC[C@@H]4C)nc(N4CCOC[C@@H]4C)nc3n2)cc1CO [AZD8055] + CC(C)C[C@H](NC(=O)[C@H](Cc1ccccc1)NC(=O)c1cnccn1)B(O)O [Bortezomib] (partner 0.002 µM)
# How it was run: as §1
# AZD8055 + Alpelisib = compound: COc1ccc(-c2ccc3c(N4CCOC[C@@H]4C)nc(N4CCOC[C@@H]4C)nc3n2)cc1CO [AZD8055] + Cc1nc(NC(=O)N2CCC[C@H]2C(N)=O)sc1-c1ccnc(C(C)(C)C(F)(F)F)c1 [Alpelisib] (partner 2 µM)
# How it was run: as §1
Cell Line,relative viability (AZD8055 + Pemetrexed; first compound 0.01 µM),relative viability (AZD8055 + Pemetrexed; first compound 0.03162 µM),relative viability (AZD8055 + Pemetrexed; first compound 0.1 µM),relative viability (AZD8055 + Pemetrexed; first compound 0.3162 µM),relative viability (AZD8055 + Pemetrexed; first compound 1 µM),relative viability (AZD8055 + Olaparib; first compound 0.01 µM),relative viability (AZD8055 + Olaparib; first compound 0.03162 µM),relative viability (AZD8055 + Olaparib; first compound 0.1 µM),relative viability (AZD8055 + Olaparib; first compound 0.3162 µM),relative viability (AZD8055 + Olaparib; first compound 1 µM),relative viability (AZD8055 + Bortezomib; first compound 0.01 µM),relative viability (AZD8055 + Bortezomib; first compound 0.03162 µM),relative viability (AZD8055 + Bortezomib; first compound 0.1 µM),relative viability (AZD8055 + Bortezomib; first compound 0.3162 µM),relative viability (AZD8055 + Bortezomib; first compound 1 µM),relative viability (AZD8055 + Alpelisib; first compound 0.01 µM),relative viability (AZD8055 + Alpelisib; first compound 0.03162 µM),relative viability (AZD8055 + Alpelisib; first compound 0.1 µM),relative viability (AZD8055 + Alpelisib; first compound 0.3162 µM),relative viability (AZD8055 + Alpelisib; first compound 1 µM)
HOP-62,0.312,0.29,0.338,0.35,0.242,0.756,0.501,0.45,0.5,0.184,0.669,0.747,0.969,0.304,0.469,1.26,1.18,0.667,0.434,0.26
LC-2-ad,0.281,0.277,0.307,0.289,0.278,0.748,0.778,0.759,0.835,0.704,1.08,1.01,1.08,0.777,0.537,0.841,0.827,0.697,0.42,0.402
LCLC-97TM1,0.18,0.158,0.168,0.168,0.132,0.413,0.308,0.216,0.105,0.0929,0.524,0.417,0.345,0.103,0.162,0.233,0.179,0.135,0.14,0.135
LCLC-103H,0.499,0.438,0.54,0.49,0.392,0.824,0.634,0.631,0.47,0.396,1.15,0.934,0.93,0.745,0.673,0.956,0.88,0.774,0.538,0.422
LOU-NH91,0.466,0.433,0.5,0.507,0.469,1.03,0.913,0.816,0.633,0.607,0.452,0.512,0.489,0.497,0.381,0.705,0.669,0.556,0.537,0.511
LU99A,0.227,0.211,0.235,0.177,0.169,0.293,0.226,0.161,0.183,0.168,0.936,0.549,0.374,0.235,0.209,0.32,0.261,0.158,0.189,0.228
LXF-289,1.11,0.996,0.935,0.765,0.651,1.07,1.01,0.928,0.641,0.57,1.06,0.982,0.951,0.682,0.756,1.02,0.923,0.742,0.567,0.515
NCI-H23,0.503,0.635,0.542,0.326,0.354,0.248,0.213,0.279,0.166,0.184,1.3,0.881,0.791,0.27,0.271,0.668,0.604,0.406,0.268,0.269
NCI-H322M,0.655,0.689,0.622,0.609,0.483,0.806,0.847,0.734,0.731,0.474,1.24,1.34,1.17,0.894,1.11,0.696,0.0834,0.673,0.433,0.402
NCI-H441,0.273,0.247,0.232,0.234,0.205,0.691,0.528,0.359,0.32,0.249,0.502,0.577,0.396,0.168,0.186,0.678,0.42,0.444,0.331,0.315
NCI-H460,0.0514,0.0565,0.0535,0.0755,0.0693,0.444,0.409,0.371,0.254,0.216,1.25,0.79,0.44,0.195,0.0935,0.314,0.195,0.148,0.0795,0.0574
NCI-H520,0.636,0.307,0.245,0.182,0.144,0.247,0.205,0.132,0.137,0.132,0.623,0.185,0.16,0.127,0.147,0.912,0.659,0.4,0.187,0.18
NCI-H596,0.452,0.456,0.409,0.402,0.443,0.752,0.615,0.459,0.452,0.514,0.856,0.722,0.697,0.459,0.497,0.479,0.385,0.348,0.348,0.324
NCI-H647,0.207,0.155,0.133,0.166,0.122,0.7,0.416,0.301,0.227,0.169,1.71,0.748,0.541,0.266,0.17,0.987,0.623,0.332,0.208,0.167
NCI-H650,0.981,0.691,0.843,0.371,0.299,0.484,0.38,0.357,0.217,0.175,0.658,0.511,0.681,0.343,0.291,0.968,0.834,0.695,0.385,0.385
NCI-H1563,0.735,0.577,0.602,0.563,0.471,–,–,–,–,–,0.862,0.808,0.758,0.599,0.773,0.82,0.61,0.603,0.51,0.673
